According to US20250074911A1, “MACROCYCLIC BTK INHIBITORS” (Crossfire Oncology Holding B.V., priority 2021, published 2025):
pIC50: −log10 of the molar value.

Experiments:
[1] = biological target: full-length wt-BTK enzyme (Homo sapiens (Human), UniProt Q06187); experiment: Biochemical kinase assay wt-BTK (IMAP)
Method: Biochemical kinase assay wt-BTK To determine the inhibitory activity of compounds on wt-BTK enzyme activity, the IMAP® assay (Molecular Devices) was used. […] After pre-incubation of 1 hour in the dark at room temperature, fluorescein-labeled MBP-derived substrate peptide (Molecular Devices, cat. no. RP 7123) was added, followed by ATP to start the reaction. Final enzyme concentration was 1.2 nM, final substrate concentration 50 nM, and final ATP concentration was 4 μM. The reaction was allowed to proceed for 2 hours at room temperature in the dark. The reaction was stopped by quenching with IMAP progressive binding solution according to the protocol of the manufacturer (Molecular Devices). Fluorescein polarization was measured on an Envision multimode reader (Perkin Elmer, Waltham, MA, U.S.A.). […] Results of the wt-BTK binding affinity are shown in Table 1 below. • IC50 wt-BTK: […]

[2] = biological target: full-length BTK C481S enzyme (Homo sapiens (Human), UniProt Q06187, C481S); experiment: Biochemical kinase assay BTK C481S (IMAP)
Method: Biochemical kinase assay BTK […] To determine the inhibitory activity of compounds on BTK C481S enzyme activity, the IMAP® assay (Molecular Devices) was used. […] After pre-incubation of 1 hour in the dark at room temperature, fluorescein-labeled MBP-derived substrate peptide (Molecular Devices, cat. no. RP 7123) was added, followed by ATP to start the reaction. Final enzyme concentration was 1.2 nM final substrate concentration 50 nM, and final ATP concentration was 7 μM. The reaction was allowed to proceed for 2 hours at room temperature in the dark. The reaction was stopped by quenching with IMAP progressive binding solution according to the protocol of the manufacturer (Molecular Devices). Fluorescein polarization was measured on an Envision multimode reader (Perkin Elmer, Waltham, MA, U.S.A.). IC50 were calculated using XLfitTM5 software (ID Business Solutions, Ltd., Surrey, U.K.). Results of the BTK […] binding affinity are shown in Table 1 below. • IC50 BTK […]: […]

[3] = tested on: wt-REC-1 mantle cell lymphoma cells; experiment: Cell proliferation assay wt-REC-1 (ATPlite, 72 hours); type: cell-based; conditions: 72 h; read-out: IC50 wt-REC-1
Method: Results of the BTK […] binding affinity are shown in Table 1 below. • IC50 BTK […]: […] wt-REC-1 mantle cell lymphoma cells were purchased from American Type Culture Collection via Synthego Corporation (cat. no. CRL-3004, ATCC). […] Luminescence was recorded on an Envision multimode reader. The cell signal at the start of incubation was recorded separately in order to distinguish between cell population growth and cell death. In addition, maximum growth was determined by incubation of a duplicate without compound in the presence of 0.3% DMSO. Percentage growth was used as the main y-axis signal. IC50s were fitted by non-linear regression using IDBS XLfitTM5 using a 4-parameter logistic curve, yielding a maximum signal, minimum signal, hill-parameter and IC50. Results of the wt-REC-1 proliferation are shown in Table 1 below. • IC50 wt-REC-1: […]

REC-1 T474I cell lines = experiment: Cell proliferation assay REC-1 BTK T474I knock-in cells (ATPlite, 72 hours); type: cell-based; conditions: Homo sapiens, Rec1; 72 hours; read-out: IC50 REC-1 T474I
Method: Cell proliferation assay Generation of BTK […] knock-in cell lines wt-REC-1 cell lines expressing mutant BTK were created at Synthego Corporation. Cell lines expressing BTK […] was generated via CRISPR/Cas9. Monoclonal REC-1 […] cell lines were obtained by single cell cloning. The mutation status of all cell lines was confirmed via sequencing. […] Luminescence was recorded on an Envision multimode reader. The cell signal at the start of incubation was recorded separately in order to distinguish between cell population growth and cell death. In addition, maximum growth was determined by incubation of a duplicate without compound in the presence of 0.3% DMSO. Percentage growth was used as the main y-axis signal.

full-length wt-BTK enzyme, sequence (Q06187 whole entry): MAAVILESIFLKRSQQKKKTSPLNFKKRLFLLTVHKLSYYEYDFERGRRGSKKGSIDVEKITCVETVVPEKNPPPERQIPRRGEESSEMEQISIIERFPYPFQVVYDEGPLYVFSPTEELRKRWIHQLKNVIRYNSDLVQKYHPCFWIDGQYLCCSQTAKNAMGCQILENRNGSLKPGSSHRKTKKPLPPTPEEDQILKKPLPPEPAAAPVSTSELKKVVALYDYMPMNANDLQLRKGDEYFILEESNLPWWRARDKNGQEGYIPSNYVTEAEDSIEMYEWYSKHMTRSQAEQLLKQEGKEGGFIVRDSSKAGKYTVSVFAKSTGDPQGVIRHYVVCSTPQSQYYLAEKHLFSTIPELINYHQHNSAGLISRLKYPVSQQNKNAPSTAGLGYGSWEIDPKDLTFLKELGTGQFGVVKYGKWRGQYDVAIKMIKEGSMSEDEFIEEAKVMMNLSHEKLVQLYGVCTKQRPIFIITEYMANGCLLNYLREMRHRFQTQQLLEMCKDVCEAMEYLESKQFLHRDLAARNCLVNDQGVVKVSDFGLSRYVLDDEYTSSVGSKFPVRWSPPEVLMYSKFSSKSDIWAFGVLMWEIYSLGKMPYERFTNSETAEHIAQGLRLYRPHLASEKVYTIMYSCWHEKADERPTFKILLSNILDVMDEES
full-length BTK C481S enzyme, sequence (Q06187 whole entry C481S): as the sequence (Q06187 whole entry) above, with C481S counted along it

Compound | pIC50 [1] | pIC50 [2] | pIC50 [3] | pIC50 (REC-1 T474I cell lines)
COC1/C=C/c2cnc(N)c3c(-c4ccc(C(=O)Nc5cc(C(F)(F)F)ccn5)cc4)nn(c23)[C@@H]2CCC[C@H](C2)NC(=O)CCC1 (stereo partly drawn) [Example 19] | 7.30 to 8.30 | 7.30 to 8.30 | 6.00 to 7.00 | 5.00 to 6.30
Nc1ncc2c3c1c(-c1ccc(C(=O)Nc4cc(C(F)(F)F)ccn4)cc1)nn3[C@@H]1CCC[C@H](C1)NC(=O)CCCCNC/C=C/2 [Example 22] | > 8.30 | > 8.30 | 6.00 to 7.00 | 5.00 to 6.30
C[C@@H]1CCn2nc(-c3ccc(C(=O)Nc4cc(C(F)(F)F)ccn4)cc3)c3c(N)ncc(c32)/C=C/CO[C@@H](C)C(=O)N1 [Example 58] | 7.30 to 8.30 | 7.30 to 8.30 | 5.00 to 6.00 | 5.00 to 6.30
C[C@@H]1CCn2nc(-c3ccc(C(=O)Nc4cc(C(F)(F)F)ccn4)cc3)c3c(N)ncc(c32)/C=C/CCCCCCC(=O)N1 [Example 62] | > 8.30 | > 8.30 | 6.00 to 7.00 | 5.00 to 6.30
C[C@@H]1CCn2nc(-c3ccc(C(=O)Nc4cc(C(F)(F)F)ccn4)cc3)c3c(N)ncc(c32)/C=C/CCCCCCCC(=O)N1 [Example 63] | > 8.30 | > 8.30 | 6.00 to 7.00 | 5.00 to 6.30
C[C@@H]1CCn2nc(-c3ccc(C(=O)Nc4cc(C(F)(F)F)ccn4)cc3)c3c(N)ncc(c32)/C=C/CCCCCCCCC(=O)N1 [Example 64] | 7.30 to 8.30 | > 8.30 | 6.00 to 7.00 | 5.00 to 6.30
C[C@@H]1CCn2nc(-c3ccc(C(=O)Nc4cc(C(F)(F)F)ccn4)cc3)c3c(N)ncc(c32)/C=C/C[S+]([O-])CC(=O)N1 (stereo partly drawn) [Example 65] | > 8.30 | > 8.30 | 5.00 to 6.00 | 5.00 to 6.30
C[C@@H]1CCn2nc(-c3ccc(C(=O)Nc4cc(C(F)(F)F)ccn4)cc3)c3c(N)ncc(c32)/C=C/CN(C)CCCC(=O)N1 [Example 66] | > 8.30 | > 8.30 | 5.00 to 6.00 | 5.00 to 6.30
C[C@@H]1CCn2nc(-c3ccc(C(=O)Nc4cc(C(F)(F)F)ccn4)cc3)c3c(N)ncc(c32)/C=C/CNCCCC(=O)N1 [Example 67] | > 8.30 | > 8.30 | 5.00 to 6.00 | 5.00 to 6.30
Nc1ncc2c3c1c(-c1ccc(C(=O)Nc4cc(C(F)(F)F)ccn4)cc1)nn3[C@@H]1CCC[C@H](C1)C(=O)NCCC/C=C/C2 [Example 84a] | 7.30 to 8.30 | 7.30 to 8.30 | 6.00 to 7.00 | 5.00 to 6.30
Nc1ncc2c3c1c(-c1ccc(C(=O)Nc4cc(C(F)(F)F)ccn4)cc1)nn3[C@@H]1CCC[C@H](C1)C(=O)NCCC/C=C\C2 [Example 84b] | 7.30 to 8.30 | > 8.30 | 6.00 to 7.00 | 
Nc1ncc2c3c1c(-c1ccc(C(=O)Nc4cc(C(F)(F)F)ccn4)cc1)nn3[C@@H]1CCC[C@H](C1)C(=O)NCCCC/C=C/C2 [Example 85a] | 7.30 to 8.30 | 6.30 to 7.30 | 6.00 to 7.00 | 5.00 to 6.30
Nc1ncc2c3c1c(-c1ccc(C(=O)Nc4ccccn4)cc1)nn3[C@@H]1CCC[C@H](C1)C(=O)NCCCC/C=C/C2 [Example 87a] | 6.30 to 7.30 | 6.30 to 7.30 | 5.00 to 6.00 | 5.00 to 6.30
Nc1ncc2c3c1c(-c1ccc(C(=O)Nc4ccccn4)cc1)nn3[C@@H]1CCC[C@H](C1)C(=O)NCCCCC/C=C/C2 [Example 88a] | 7.30 to 8.30 | 7.30 to 8.30 | 6.00 to 7.00 | 5.00 to 6.30
Nc1ncc2c3c1c(-c1ccc(C(=O)Nc4cc(C(F)(F)F)ccn4)cc1)nn3[C@@H]1CCC[C@H](C1)C(=O)NCCCCC/C=C/C2 [Example 89a] | 7.30 to 8.30 | 7.30 to 8.30 | 6.00 to 7.00 | 5.00 to 6.30
Nc1ncc2c3c1c(-c1ccc(C(=O)Nc4ccccn4)cc1)nn3[C@@H]1CCC[C@H](C1)C(=O)NCCC/C=C\C2 [Example 90] | 7.30 to 8.30 | 7.30 to 8.30 | 6.00 to 7.00 | 5.00 to 6.30

Compound | pIC50 [1] | pIC50 [2] | pIC50 [3] | pIC50 (REC-1 T474I cell lines)
Nc1ncc2c3c1c(-c1ccc(C(=O)Nc4ccccn4)cc1)nn3[C@@H]1CCC[C@H](C1)C(=O)NCC/C=C\C2 [Example 91] | 6.30 to 7.30 | 6.30 to 7.30 | 5.00 to 6.00 | 5.00 to 6.30
Nc1ncc2c3c1c(-c1ccc(C(=O)Nc4cc(C(F)(F)F)ccn4)cc1)nn3[C@@H]1CCC[C@H](C1)C(=O)NCCCCCC/C=C\C2 [Example 92] | 7.30 to 8.30 | 7.30 to 8.30 | 6.00 to 7.00 | 5.00 to 6.30
Nc1ncc2c3c1c(-c1ccc(C(=O)Nc4ccccn4)cc1)nn3[C@@H]1CCC[C@H](C1)C(=O)NCCCCCC/C=C\C2 [Example 93] | 7.30 to 8.30 | > 8.30 | 6.00 to 7.00 | 5.00 to 6.30
Nc1ncc2c3c1c(-c1ccc(C(=O)Nc4cc(C(F)(F)F)ccn4)cc1)nn3[C@@H]1CCC[C@H](C1)NC(=O)CCC/C=C/C2 [Example 94a] | 7.30 to 8.30 | 7.30 to 8.30 | 6.00 to 7.00 | 5.00 to 6.30
Nc1ncc2c3c1c(-c1ccc(C(=O)Nc4cc(C(F)(F)F)ccn4)cc1)nn3[C@@H]1CCC[C@H](C1)NC(=O)CCC/C=C\C2 [Example 94b] | > 8.30 | > 8.30 | 6.00 to 7.00 | 5.00 to 6.30
Nc1ncc2c3c1c(-c1ccc(C(=O)Nc4cc(C(F)(F)F)ccn4)cc1)nn3[C@@H]1CCC[C@H](C1)NC(=O)CC/C=C/C2 [Example 95] | 7.30 to 8.30 | 7.30 to 8.30 | 5.00 to 6.00 | 5.00 to 6.30
Nc1ncc2c3c1c(-c1ccc(C(=O)Nc4ccccn4)cc1)nn3[C@@H]1CCC[C@H](C1)NC(=O)CC/C=C/C2 [Example 96a] | 6.30 to 7.30 | 6.30 to 7.30 | 5.00 to 6.00 | 5.00 to 6.30
Nc1ncc2c3c1c(-c1ccc(C(=O)Nc4ccccn4)cc1)nn3[C@@H]1CCC[C@H](C1)NC(=O)CC/C=C\C2 [Example 96b] | 7.30 to 8.30 | 7.30 to 8.30 | 5.00 to 6.00 | 5.00 to 6.30
Nc1ncc2c3c1c(-c1ccc(C(=O)Nc4cc(C(F)(F)F)ccn4)cc1)nn3[C@@H]1CCC[C@H](C1)NC(=O)COC/C=C/C2 [Example 97a] | 7.30 to 8.30 | 7.30 to 8.30 | 5.00 to 6.00 | 5.00 to 6.30
Nc1ncc2c3c1c(-c1ccc(C(=O)Nc4cc(C(F)(F)F)ccn4)cc1)nn3[C@@H]1CCC[C@H](C1)NC(=O)CCCC/C=C/C2 [Example 98a] | 6.30 to 7.30 | 6.30 to 7.30 | 6.00 to 7.00 | 5.00 to 6.30
Nc1ncc2c3c1c(-c1ccc(C(=O)Nc4ccccn4)cc1)nn3[C@@H]1CCC[C@H](C1)NC(=O)CCC/C=C/C2 [Example 99a] | 6.30 to 7.30 | 6.30 to 7.30 | 5.00 to 6.00 | 5.00 to 6.30
Nc1ncc2c3c1c(-c1ccc(C(=O)Nc4ccccn4)cc1)nn3[C@@H]1CCC[C@H](C1)NC(=O)CCCC/C=C/C2 [Example 100a] | 6.30 to 7.30 | 6.30 to 7.30 | 5.00 to 6.00 | 5.00 to 6.30
Nc1ncc2n3c(nc(-c4ccc(C(=O)Nc5cc(C(F)(F)F)ccn5)cc4)c13)CCCNC(=O)CCC=CC2 [Example 134] | 7.30 to 8.30 | 7.30 to 8.30 | 5.00 to 6.00 | 
Nc1ncc2n3c(nc(-c4ccc(C(=O)Nc5cc(C(F)(F)F)ccn5)cc4)c13)CCCNC(=O)CCCC=CC2 [Example 135] | 7.30 to 8.30 | 7.30 to 8.30 | 5.00 to 6.00 | 
Nc1ncc2n3c(nc(-c4ccc(C(=O)Nc5cc(C(F)(F)F)ccn5)cc4)c13)[C@@H]1CCC[C@H](C1)NC(=O)CC/C=C/C2 [Example 136] | 7.30 to 8.30 | 7.30 to 8.30 | 5.00 to 6.00 | 
